The values that follow come from patent publication US20150080292A1 (priority 2013, published 2015).

In one data set the test system is Rhizoctonia solani. Description: Anti-fungus plate experiment (growth diameter on LB medium with drug). To be noted: LB plates, 28° C. Type of data set: cell-based. The method, then:
(§1) The anti-fungi experiment, with 6 treatments of different drug concentration and three replicates each treatment and sterile water as blank check, was conducted by mixing Locillomycin-A, Locillomycin-B and Locillomycin-C separately into different plates containing LB medium and, then, inoculating pathogenic fungi in the center of the plates, followed by incubation at 28° C. to check the effectiveness of antifungal function. The criteria of the effectiveness were defined as the size of orthogonal cross diameter of the pathogen growth.

A further data set has as its system Fusarium oxysporum. The data set is described as above. Type of data set: cell-based. To be noted: LB plates, 28° C. The method, then: as §1
For the next data set, the system named is Fusarium graminearum. The note with it: LB plates, 28° C.
For data set [1] the following is noted: solvents in which the compound dissolves.

Molecules are shown by their SMILES. In brackets after ≈: the same amount, converted by molar mass. Where a SMILES comes first, the peptide text is derived from it. Bridges are numbered along the chain shown (N, C = ends). The star is where a group is joined. Pentadecanoyl = CCCCCCCCCCCCCCC(=O)*; Tridecanoyl = CCCCCCCCCCCCC(=O)*; Myristoyl = CCCCCCCCCCCCCC(=O)* Some results are limits rather than exact numbers.

As a reminder, the IC50 is the midpoint of a concentration-inhibition curve. Low values mean higher potency, high ones lower potency. In general, IC90 refers to the point of the concentration-response curve where the effect stands at 90%. The low end stands for greater potency, the high end for weaker potency. For the molecule `CCCCCCCCCCCCCCC(=O)NC1C(=O)NC(CCC(N)=O)C(=O)NC(CC(=O)O)C(=O)NCC(=O)NC(CC(N)=O)C(=O)NC(CC(=O)O)C(=O)NCC(=O)NC(Cc2ccc(O)cc2)C(=O)NC(C(C)C)C(=O)OC1C` (stereo not drawn) [Locillomycin-C] (Pentadecanoyl-TQDGNDGYV; ester 1-C; configuration not given here), the IC50 was 12.4 µg/mL (≈ 10.6 µM) in the data set on Rhizoctonia solani, 10.3 µg/mL (≈ 8.77 µM) in the data set with Fusarium oxysporum and 21.7 µg/mL (≈ 18.5 µM) in the data set on Fusarium graminearum. Also, the IC90 with Rhizoctonia solani was 38.6 µg/mL (≈ 32.9 µM); in the data set on Fusarium oxysporum, 46.8 µg/mL (≈ 39.9 µM); in the data set on Fusarium graminearum, over 100 µg/mL. In data set [1], the Solubility result is “Methanol, Dimethyl”.

Consider `CCCCCCCCCCCCC(=O)NC1C(=O)NC(CCC(N)=O)C(=O)NC(CC(=O)O)C(=O)NCC(=O)NC(CC(N)=O)C(=O)NC(CC(=O)O)C(=O)NCC(=O)NC(Cc2ccc(O)cc2)C(=O)NC(C(C)C)C(=O)OC1C` (stereo not drawn) [Locillomycin-A] (Tridecanoyl-TQDGNDGYV; ester 1-C; configuration not given here), for which the IC50 with Rhizoctonia solani came to 15.5 µg/mL (≈ 13.5 µM); in the data set with Fusarium oxysporum it was 12.5 µg/mL (≈ 10.9 µM); in the data set on Fusarium graminearum, 25.4 µg/mL (≈ 22.2 µM). For the same molecule, the IC90 is 45.9 µg/mL (≈ 40 µM) in the data set on Rhizoctonia solani, 56.3 µg/mL (≈ 49.1 µM) in the data set on Fusarium oxysporum and over 100 µg/mL in the data set on Fusarium graminearum. The Solubility result in data set [1] was “Methanol, Dimethyl”.

Regarding `CCCCCCCCCCCCCC(=O)NC1C(=O)NC(CCC(N)=O)C(=O)NC(CC(=O)O)C(=O)NCC(=O)NC(CC(N)=O)C(=O)NC(CC(=O)O)C(=O)NCC(=O)NC(Cc2ccc(O)cc2)C(=O)NC(C(C)C)C(=O)OC1C` (stereo not drawn) [Locillomycin-B] (Myristoyl-TQDGNDGYV; ester 1-C; configuration not given here), the half-inhibitory concentration (IC50) in the data set with Rhizoctonia solani was 13.8 µg/mL (≈ 11.9 µM); in the data set on Fusarium oxysporum it was 11.6 µg/mL (≈ 10 µM); in the data set on Fusarium graminearum, 22.6 µg/mL (≈ 19.5 µM). Besides, the IC90 with Rhizoctonia solani is 40.6 µg/mL (≈ 35 µM); with Fusarium oxysporum it was 48.9 µg/mL (≈ 42.1 µM); with Fusarium graminearum, over 100 µg/mL. The Solubility result in data set [1] is given as “Methanol, Dimethyl”.
